{"source": "paper PMC10845205", "about": "“Discovery of novel antibacterial agent for the infected wound treatment: all-hydrocarbon stapling optimization of LL-37” (Theranostics, 2024)", "key": {"Serum stability assay": {"assay": "Serum stability assay", "type": "in vitro ADME, human", "conditions": "human serum, 2 mg/mL peptide in pH 7.4 PBS mixed with serum 1:4, 37 °C, up to 48 h, RP-HPLC UV 220 nm, 3 independent measurements", "source_text": "Maintaining high stability and presenting high compatibility in the complex physiological environment are important criterions for the clinical translation of AMPs. […] The derivatives were mixed with human serum in pH 7.4 PBS, simulating the degradation process of peptides by proteases in vivo. The percentages of intact derivatives were monitored and determined with time according to the PR-HPLC. […]\nSerum stability of the linear and stapled peptides was examined by RP -HPLC as previously described. 2 mg/mL peptide solution was prepared in pH 7.4 PBS and incubated with human serum (Gemini, USA) to the final volume ratio of 1:4 at 37 °C.\nAt various time intervals, 50 μL mixture was added to 50 μL ethanol to terminate the enzymatic hydrolysis. After centrifugation at 10,000 rpm for 10 minutes under 4 °C, […]\n(§1) the supernatant was collected and analyzed by RP-HPLC, with a UV detector monitored at 220 nm. Record the peak area of the intact peptide and calculate the percentage of remaining peptide based on the integrated area as, Peptide remaining (%) = peak area of remaining peptide/peak area of intact peptide×100%. […]"}, "[1]": {"assay": "α-helicity by circular dichroism", "type": "physicochemical", "conditions": "CD, aqueous solution containing 50% trifluoroethanol, from [θ]222, 25 °C", "experimental": "cm2 ∙ dmol−1) after subtracting the background using the following equation:\n[θ]=(θ×1000)/( c ×l ×n ), among which, θ is the ellipticity recorded (mdeg), c is the concentration of peptide (M), l is the quartz cuvette’s optical path length (cm), and n is the amino acid number of the peptide. The helicity of peptides was calculated using the following equation: α = [θ]222/[θ]max ×100%, where [θ]222 is the mean residue ellipticity of the peptide at 222 nm; [ θ]max = (−44,000 +250T) (1−k/n), k = 4, n is the number of amino acids, T = 25 °C.\nBacterial strains and culture\nBacterial type stains ATCC 25923 S. aureus, ATCC 12228 S. epidermidis, ATCC […]\naeruginosa and ATCC 13883 K. pneumoniae were obtained from Shanghai Bioresource Collection Center. The bacterial culture medium was purchased from Oxoid and autoclaved according to the instructions from manufacturer. […]\nThe minimal inhibition concentration (MIC) of the linear and stapled peptides was determined using the microbroth dilution method from the Clinical and Laboratory Standards Institute (CLSI)[2, 3]. […]\n10 μL AlamarBlue cell viability reagent (ThermoFisher Scientific, UK) was added to each well, then the plate was re -incubated for a further 2 hours at 37 °C. The MIC was recorded as the minimum concentration of peptides required to completely in hibit bacteria growth. […]"}, "rabbit erythrocytes": {"test_system": "rabbit erythrocytes", "assay": "Hemolysis assay", "conditions": "rabbit erythrocytes 4% (v/v), 256 μg/mL peptide, 1 h 37 °C, absorbance 570 nm, 0.1% Triton X-100 control", "experimental": "The hemolytic activity of peptides was tested using rabbit erythrocytes (Figure S13). […]\nas §1, with “peptide×100%. Experiments were performed” for “peptide×100%.”\nwith 200 μL of 4% (v/v) rabbit erythrocyte suspension, and the mixed solution was diluted with rabbit red blood cell suspension to obtain a series of peptide stock solution with different concentrations by fold dilution. […] Separate the supernatant and use a microplate reader (BioTek, USA) to measure hemoglobin release. Measure the absorbance at a wavelength of 570nm and calculate the percentage of hemolysis as follows: hemolysis (%) = (Abspeptide-Absblank)/(Abscontrol-Absblank), where Absblank and Abscontrol were absorbance of samples treated with PBS and 0.1% Triton X-100, […]\nN-phenyl-1-naphthylamine (NPN, Macklin, China) was used to evaluate the integrity of OM of E. coli treated with the linear and stapled peptides. […] Subsequently, add a final concentration of 10 μM of NPN in each well of the plate and after incubation for 30 m inutes, record the fluorescence at 420 nm using a microplate reader with an exc itation wavelength of 350 […]"}}, "note": "Positions of bridges follow the written chain, without caps; N, C: chain ends. Non-standard residues stand in square brackets, D forms with d. Residues, ends and D or L forms follow the SMILES beside them. S5 = C=CCCC[C@](C)(N)C(=O)O", "data": [{"smiles": "CC[C@H](C)[C@H](NC(=O)[C@H](CCCNC(=N)N)NC(=O)[C@H](CCCCN)NC(C)=O)C(=O)N[C@H](C(=O)N[C@@H](CCC(N)=O)C(=O)N[C@@H](CCCNC(=N)N)C(=O)N[C@H](C(=O)N[C@@]1(C)CCCC=CCCC[C@@](C)(C(N)=O)NC(=O)[C@H](CC(C)C)NC(=O)[C@H](Cc2ccccc2)NC(=O)[C@H](CC(=O)O)NC1=O)[C@@H](C)CC)C(C)C", "note": "[KR-12 (K8, R12)] (Ac-KRIVQRI[S5]DFL[S5]-NH2; staple 8-12)", "values": [{"measurement": "TD50 (time at which 50% of the peptide is degraded in the presence of serum)", "setting": "Serum stability assay", "result": 18.28, "unit": "h"}, {"measurement": "α-helicity", "setting": "[1]", "result": "50.0 ± 0.6", "unit": "%"}, {"measurement": "H256 (hemolysis percentage)", "setting": "rabbit erythrocytes", "result": "77.2 ± 0.3", "unit": "%"}]}]}
